# Values quoted from earlier work as cited in PubChem BioAssay AID1259409 (Chemical Carcinogenesis Research Information System (CCRIS), 2018).
# Test system: rodent chemically induced tumor inhibition, incidence and multiplicity
# Experiment: CCRIS tumor inhibitor studies
# Source text: The CCRIS database contains chemical records with carcinogenicity, mutagenicity, tumor promotion, and tumor inhibition test results. It was developed by the National Cancer Institute (NCI). Data are derived from studies cited in primary journals, current awareness tools, NCI reports, and other sources. Test results have been reviewed by experts in carcinogenesis and mutagenesis.
# CCRIS provides historical information from the years 1985 - 2011. It is no longer updated.
# This is an archive assay for CCRIS tumor inhibitor studies.
compound,measurement,setting,value
C=Cc1c(C)c2[n-]c1=CC1=NC(=CC3=C(C)C(=C([O-])[O-])C(=N3)C(CC(=O)[O-])=C3N=C(C=2)C(C)C3CCC(=O)[O-])C(CC)=C1C.[Cu+2].[Na+].[Na+].[Na+] (stereo not drawn),"tumour outcome (control, treated, inhibition, significance)","Carcinogen: 2,2'-DIHYDROXY-DI-N-PROPYLNITROSAMINE, 53609-64-6, N-ETHYL-N-HYDROXYETHYLNITROSAMINE, 13147-25-6, 3,2'-DIMETHYL-1,4-, Carcinogen: 2,2'-DIHYDROXY-DI-N-PROPYLNITROSAMINE, 53609-64-6, N-ETHYL-N-HYDROXYETHYLNITROSAMINE, 13147-25-6, 3,2'-DIMETHYL-1,4-, Dose [Inhibitor]: 0, 1% IN DIET FOR 4 WK BEGINNING 1 D PRIOR TO FIRST CARCINOGEN DOSE (STUDY DURATION: 36 WK), Route [Inhibitor]: ORAL, Species: RAT, Strain/Sex: F344/MALE, Target Tissue: Type of Lesion: KIDNEY: ADENOMA, Dose [Carcinogen]: 1000 MG/KG BW DHPN TWICE, 1500 MG/KG EHEN TWICE, 75 MG/KG BW DMAB 3 TIMES, SEQUENTIALLY OVER 3 WK, Promoter: NONE USED","6/10 (60%), 6/13 (46%), 23%, not significant"
same,"tumour outcome (control, treated, inhibition, significance)","Carcinogen: 2,2'-DIHYDROXY-DI-N-PROPYLNITROSAMINE, 53609-64-6, N-ETHYL-N-HYDROXYETHYLNITROSAMINE, 13147-25-6, 3,2'-DIMETHYL-1,4-, Carcinogen: 2,2'-DIHYDROXY-DI-N-PROPYLNITROSAMINE, 53609-64-6, N-ETHYL-N-HYDROXYETHYLNITROSAMINE, 13147-25-6, 3,2'-DIMETHYL-1,4-, Dose [Inhibitor]: 0, 1% IN DIET FOR 4 WK BEGINNING 1 D PRIOR TO FIRST CARCINOGEN DOSE (STUDY DURATION: 36 WK), Route [Inhibitor]: ORAL, Species: RAT, Strain/Sex: F344/MALE, Target Tissue: Type of Lesion: LUNG: ADENOMA, Dose [Carcinogen]: 1000 MG/KG BW DHPN TWICE, 1500 MG/KG EHEN TWICE, 75 MG/KG BW DMAB 3 TIMES, SEQUENTIALLY OVER 3 WK, Promoter: NONE USED","5/10 (50%), 8/13 (62%), -24%, not significant"
same,"tumour outcome (control, treated, inhibition, significance)","Carcinogen: 2-AMINO-1-METHYL-6-PHENYLIMIDAZO[4,5-B]PYRIDINE, 105650-23-5, Dose [Inhibitor]: 0, 1% IN DIET FOR 54 WK (STUDY DURATION: 54 WK), Route [Inhibitor]: ORAL, Species: RAT, Strain/Sex: F344/FEMALE, Target Tissue: Type of Lesion: COLON: ADENOMA, Dose [Carcinogen]: 0.02% IN DIET FOR 54 WK, Promoter: NONE USED","2/20 (10%), 4/20 (20%), -100%, not significant"
same,"tumour outcome (control, treated, inhibition, significance)","Carcinogen: 2-AMINO-1-METHYL-6-PHENYLIMIDAZO[4,5-B]PYRIDINE, 105650-23-5, Dose [Inhibitor]: 0, 1% IN DIET FOR 54 WK (STUDY DURATION: 54 WK), Route [Inhibitor]: ORAL, Species: RAT, Strain/Sex: F344/FEMALE, Target Tissue: Type of Lesion: MAMMARY GLAND: ADENOCARCINOMA, Dose [Carcinogen]: 0.02% IN DIET FOR 54 WK, Promoter: NONE USED","8/20 (40%), 3/20 (15%), 63%, not significant"
same,"tumour outcome (control, treated, inhibition, significance)","Carcinogen: 2-AMINO-1-METHYL-6-PHENYLIMIDAZO[4,5-B]PYRIDINE, 105650-23-5, Dose [Inhibitor]: 0, 1% IN DIET FOR 54 WK (STUDY DURATION: 54 WK), Route [Inhibitor]: ORAL, Species: RAT, Strain/Sex: F344/FEMALE, Target Tissue: Type of Lesion: MAMMARY GLAND: FIBROADENOMA, Dose [Carcinogen]: 0.02% IN DIET FOR 54 WK, Promoter: NONE USED","2/20 (10%), 0/20 (0%), 100%, not significant"
same,"tumour outcome (control, treated, inhibition, significance)","Carcinogen: 7,12-DIMETHYLBENZ[A]ANTHRACENE [57-97-6], Dose [Inhibitor]: 0.5% IN 0.2 ML DMSO/ACETONE (15:85) 1 D PRIOR TO CARCINOGEN DOSE (STUDY DURATION: 31 WK), Route [Inhibitor]: DERMAL, Species: MOUSE, Strain/Sex: ICR/FEMALE, Target Tissue: Type of Lesion: SKIN: TUMOR, Dose [Carcinogen]: 0.2 UMOL ONCE (STUDY DURATION: 31 WK), Promoter: 12-O-TETRADECANOYLPHORBOL-13-ACETATE [16561-29-8]","100%, 87%, 13%, not significant"
same,"tumour outcome (control, treated, inhibition, significance)","Carcinogen: 7,12-DIMETHYLBENZ[A]ANTHRACENE [57-97-6], Dose [Inhibitor]: 0.5% IN 0.2 ML DMSO/ACETONE (15:85) 1 D PRIOR TO CARCINOGEN DOSE AND 10 MIN PRIOR TO EACH PROMOTER DOSE FOR 30 WK (STUDY, Route [Inhibitor]: DERMAL, Species: MOUSE, Strain/Sex: ICR/FEMALE, Target Tissue: Type of Lesion: SKIN: TUMOR, Dose [Carcinogen]: 0.2 UMOL ONCE (STUDY DURATION: 31 WK), Promoter: 12-O-TETRADECANOYLPHORBOL-13-ACETATE [16561-29-8]","100%, 27%, 73%, p<0.005"
same,"tumour outcome (control, treated, inhibition, significance)","Carcinogen: 7,12-DIMETHYLBENZ[A]ANTHRACENE [57-97-6], Dose [Inhibitor]: 0.5% IN 0.2 ML DMSO/ACETONE (15:85) 10 MIN PRIOR TO EACH PROMOTER DOSE FOR 30 WK (STUDY DURATION: 30 WK), Route [Inhibitor]: DERMAL, Species: MOUSE, Strain/Sex: ICR/FEMALE, Target Tissue: Type of Lesion: SKIN: TUMOR, Dose [Carcinogen]: 0.2 UMOL ONCE (STUDY DURATION: 30 WK), Promoter: 12-O-TETRADECANOYLPHORBOL-13-ACETATE [16561-29-8]","100%, 40%, 60%, p<0.005"
same,"tumour outcome (control, treated, inhibition, significance)","Carcinogen: BENZO[A]PYRENE-7,8-DIHYDRODIOL-9,10-EPOXIDE, 58917-67-2, Dose [Inhibitor]: 0, 15 MG/KG BW ONCE 30 MIN PRIOR TO CARCINOGEN DOSE (STUDY DURATION: 24 WK), Route [Inhibitor]: GAVAGE, Species: MOUSE, Strain/Sex: ICR/FEMALE, Target Tissue: Type of Lesion: SKIN: PAPILLOMA, Dose [Carcinogen]: 0.1 UMOL ONCE, Promoter: 12-O-TETRADECANOYLPHORBOL-13-ACETATE, 16561-29-8","98%, 70%, 29%, not calculated"
same,"tumour outcome (control, treated, inhibition, significance)","Carcinogen: BENZO[A]PYRENE, 50-32-8, Dose [Inhibitor]: 0, 15 MG/KG BW ONCE 30 MIN PRIOR TO CARCINOGEN DOSE (STUDY DURATION: 40 WK), Route [Inhibitor]: GAVAGE, Species: MOUSE, Strain/Sex: ICR/FEMALE, Target Tissue: Type of Lesion: SKIN: PAPILLOMA, Dose [Carcinogen]: 0.3 UMOL ONCE, Promoter: 12-O-TETRADECANOYLPHORBOL-13-ACETATE, 16561-29-8","97%, 78%, 20%, not calculated"
same,"tumour outcome (control, treated, inhibition, significance)","Carcinogen: DIETHYLNITROSAMINE, 55-18-5, Dose [Inhibitor]: 0, 2000 PPM IN DIET FOR 4 WK DURING INITIATION (STUDY DURATION: 24 WK), Route [Inhibitor]: ORAL, Species: RAT, Strain/Sex: F344/MALE, Target Tissue: Type of Lesion: LIVER: ADENOMA, Dose [Carcinogen]: 100 MG/KG BW 1/WK FOR 3 WK, Promoter: PHENOBARBITAL, 50-06-6","95%, 70%, 26%, p<0.05"
same,"tumour outcome (control, treated, inhibition, significance)","Carcinogen: DIETHYLNITROSAMINE, 55-18-5, Dose [Inhibitor]: 0, 2000 PPM IN DIET FOR 4 WK DURING INITIATION (STUDY DURATION: 24 WK), Route [Inhibitor]: ORAL, Species: RAT, Strain/Sex: F344/MALE, Target Tissue: Type of Lesion: LIVER: CARCINOMA, Dose [Carcinogen]: 100 MG/KG BW 1/WK FOR 3 WK, Promoter: PHENOBARBITAL, 50-06-6","70%, 60%, 14%, not significant"
same,"tumour outcome (control, treated, inhibition, significance)","Carcinogen: DIETHYLNITROSAMINE, 55-18-5, Dose [Inhibitor]: 0, 2000 PPM IN DIET FOR 20 WK BEGINNING 1 WK POST CARCINOGEN TREATMENT (STUDY DURATION: 24 WK), Route [Inhibitor]: ORAL, Species: RAT, Strain/Sex: F344/MALE, Target Tissue: Type of Lesion: LIVER: ADENOMA, Dose [Carcinogen]: 100 MG/KG BW 1/WK FOR 3 WK, Promoter: NONE USED","13%, 13%, 0%, not significant"
same,"tumour outcome (control, treated, inhibition, significance)","Carcinogen: DIETHYLNITROSAMINE, 55-18-5, Dose [Inhibitor]: 0, 2000 PPM IN DIET FOR 20 WK BEGINNING 1 WK POST CARCINOGEN TREATMENT (STUDY DURATION: 24 WK), Route [Inhibitor]: ORAL, Species: RAT, Strain/Sex: F344/MALE, Target Tissue: Type of Lesion: LIVER: ADENOMA, Dose [Carcinogen]: 100 MG/KG BW 1/WK FOR 3 WK, Promoter: PHENOBARBITAL, 50-06-6","95%, 63%, 34%, p<0.02"
same,"tumour outcome (control, treated, inhibition, significance)","Carcinogen: DIETHYLNITROSAMINE, 55-18-5, Dose [Inhibitor]: 0, 2000 PPM IN DIET FOR 20 WK BEGINNING 1 WK POST CARCINOGEN TREATMENT (STUDY DURATION: 24 WK), Route [Inhibitor]: ORAL, Species: RAT, Strain/Sex: F344/MALE, Target Tissue: Type of Lesion: LIVER: CARCINOMA, Dose [Carcinogen]: 100 MG/KG BW 1/WK FOR 3 WK, Promoter: NONE USED","29%, 31%, -7%, not significant"
same,"tumour outcome (control, treated, inhibition, significance)","Carcinogen: DIETHYLNITROSAMINE, 55-18-5, Dose [Inhibitor]: 0, 2000 PPM IN DIET FOR 20 WK BEGINNING 1 WK POST CARCINOGEN TREATMENT (STUDY DURATION: 24 WK), Route [Inhibitor]: ORAL, Species: RAT, Strain/Sex: F344/MALE, Target Tissue: Type of Lesion: LIVER: CARCINOMA, Dose [Carcinogen]: 100 MG/KG BW 1/WK FOR 3 WK, Promoter: PHENOBARBITAL, 50-06-6","70%, 63%, 10%, not significant"
same,"tumour outcome (control, treated, inhibition, significance)","Dose [Inhibitor]: 0, 500 PPM IN DIET FOR 2 WK ADMINISTERED WITH CARCINOGEN (STUDY DURATION: 9 MO), Route [Inhibitor]: ORAL, Species: FISH, Strain/Sex: RAINBOW TROUT/MALE, FEMALE, Target Tissue: Type of Lesion: LIVER: TUMOR, Promoter: NONE USED","16%, 12%, 25%, p=0.29"
same,"tumour outcome (control, treated, inhibition, significance)","Dose [Inhibitor]: 0, 500 PPM IN DIET FOR 2 WK ADMINISTERED WITH CARCINOGEN (STUDY DURATION: 9 Mo), Route [Inhibitor]: ORAL, Species: FISH, Strain/Sex: RAINBOW TROUT/MALE, FEMALE, Target Tissue: Type of Lesion: LIVER: TUMOR, Promoter: NONE USED","7%, 3%, 57%, p=0.04"
